# Measurements reported in PMC7156261 (Journal of medicinal chemistry, 2019).
# B1: WT: wild-type TEM-1 β-lactamase (protein, UniProt P62593 24-286, looked up)
# Beta-lactamase TEM: HPETLVKVKDAEDQLGARVGYIELDLNSGKILESFRPEERFPMMSTFKVLLCGAVLSRVDAGQEQLGRRIHYSQNDLVEYSPVTEKHLTDGMTVRELCSAAITMSDNTAANLLLTTIGGPKELTAFLHNMGDHVTRLDRWEPELNEAIPNDERDTTMPAAMATTLRKLLTGELLTLASRQQLIDWMEADKVAGPLLRSALPAGWFIADKSGAGERGSRGIIAALGPDGKPSRIVVIYTTGSQATMDERNRQIAEIGASLIKHW
# Experiments:
# [1] = target: TEM-1 β-lactamase M182T/G238S (Escherichia coli, UniProt P62593, G236S/M180T); experiment: DSF shift in Tm after incubation with moxalactam, M182T/G238S; type: binding; details: 100-fold molar excess moxalactam
# TEM-1 β-lactamase G238S = TEM-1 β-lactamase G238S (Escherichia coli, UniProt P62593, G236S); experiment: DSF shift in Tm after incubation with moxalactam, G238S; type: binding; details: 100-fold molar excess moxalactam
# TEM-1 β-lactamase M182T = TEM-1 β-lactamase M182T (Escherichia coli, UniProt P62593, M180T); experiment: DSF shift in Tm after incubation with moxalactam, M182T; type: binding; details: 100-fold molar excess moxalactam
# [2] = target: TEM-1 β-lactamase WT (native enzyme) (Escherichia coli, UniProt P62593); experiment: DSF shift in Tm after incubation with moxalactam, WT; type: binding; details: 100-fold molar excess moxalactam
# [3] = van't Hoff enthalpy of unfolding; type: physicochemical; details: Table S1
# Sor/CR colloids = type: binding; details: concentration of TEM-1 mutant at which 50% of fluorescent L2gd is displaced; 100 nM 5-MF-L2gd, 20 μM Sor/CR colloids
Molecule,effect on Tm [1],destabilization (lowering of Tm) (TEM-1 β-lactamase G238S) [°C],destabilization (lowering of Tm) (TEM-1 β-lactamase M182T) [°C],lowering of Tm [2] [°C],van't Hoff enthalpy of unfolding [3] [kcal/mol],EC50 (Sor/CR colloids) [µM]
CO[C@@]1(NC(=O)[C@H](C(=O)O)c2ccc(O)cc2)C(=O)N2C(C(=O)O)=C(CSc3nnnn3C)CO[C@@H]21 [moxalactam],no substantial effect,1.9,4.1,4.5,,
B1,,,,,139.5,577 ± 303
